According to patent US20250289855A1, “ANTIMICROBIAL CaNCR PEPTIDE FOLDING VARIANTS” (Donald Danforth Plant Science Center, priority 2022, published 2025):
Several values for one entry are separate records, joined by “and”; a condition that tells them apart may be missing. Equal entries are not always repeated. Bridge positions count the residues as written; N and C are the ends. Ends that are not written are not given here.

What was measured:
[1] = tested on: Sclerotinia sclerotiorum 555; assay: In vitro antifungal activity, 24-well plate mycelial plug assay; assay type: cell-based; conditions: 2 dpi; for SFM MIC: Sclerotinia sclerotiorum 555
Procedure: Sclerotinia sclerotiorum (S. sclerotiorum) 555 fungal cultures were grown on potato dextrose agar (PDA) medium (Difco Laboratories Inc., Detroit, MI, USA) at room temperature.
The antifungal activity of NCR13_PFV1 against S. sclerotiorum 555 was measured in an in vitro assay using 24-wells plate assay. Mycelial plugs (1 mm in diameter) cut from the margin of two day-old actively growing colony were transferred from potato dextrose agar media to a series of wells containing 125 microliter (L) of 2×SFM medium (U.S. Pat. No. 6,916,970), with 125 μL of NCR13_PFV1 at varying concentrations of 3, 6, 12 and 24 μM. The plates were incubated at room temperature for 2 days prior to assessment. The mycelium diameter growth was measured 2 dpi using ImageJ software. NCR13 PFV1 peptide effects were calculated as a percentage from the difference between growth of the control and treated mycelium using the formula:
IG (%)=(Dc−Dt)/Dc×100; where IG is inhibition of growth, Dc is the mycelium diameter (mm) of the control and Dt is the mycelium diameter (mm) of the peptide-treated dishes.

[2] = tested on: B. cinerea; assay: Semi-in planta drop-inoculation assay, gray mold on detached N. benthamiana leaves; assay type: in vivo, Botrytis cinerea; conditions: for inhibition of gray mold disease symptoms: 3 μM
From the text: FIG. 4 depicts a drop-inoculation assay showing semi-in planta antifungal activity of NCR13_PFV1 and NCR13_PFV2 in detached N. benthemiana leaves.
In semi-in-planta studies, detached leaves of N. benthamiana, were used to check the potential of both NCR13_PFV1 and NCR13_PFV2 to reduce gray mold disease symptoms caused by B. cinerea (FIG. 4).

[3] = tested on: S. sclerotiorum 555; assay: Semi-in planta antifungal assay on detached soybean pods; assay type: in vivo, Sclerotinia sclerotiorum; conditions: 3 dpi
Procedure: Representative pictures taken 72 h post-infection showing the antifungal activity of NCR13_PFV1.
(§1) For the semi-in planta antifungal assays, a 1 mm plug was taken from the leading edge of freshly cultured 2-day old fungal colony from PDA media and placed on approximately 3-4 weeks of age detached soybean leaves and pods (6 weeks of age). Then, 40 μL solution of NCR13_PFV1 at various concentrations or water was applied immediately on the plug and were allowed to incubate under high humidity for 2-3 days prior to assessment. The severity of disease lesions on each leaf was assessed using the CropReporter system as described in Li et al. Mol Plant Microbe Interact. 2019; 32:1649-1664. doi: 10.1094/MPMI-08-19-0224-R. Epub 2019 Oct. 28. PMID: 31425003. In addition, high-resolution fluorescence images were taken using CropReporter (PhenoVation, Wageningen, Netherlands).
Detached soybean pods from 6-week-old plants were infected with 1 mm plug of S. sclerotiorum 555 followed by the application of a drop of NCR13_PFV1 on the plug. […] We observed that NCR13_PFV1 confers fungicidal activity with 100% protection against S. sclerotiorum 555 at 3 dpi (FIG. 6).

[4] = tested on: Botrytis cinerea; assay: Tomato fruit infection assay, drop inoculation; assay type: in vivo; conditions: for control of B. cinerea growth in tomato fruits: 0.75 μM peptide, 5 dpi; for visible fungal growth on tomato fruits: B. cinerea, 0.75 μM peptide applied 12 hpi, 3 dpi
Procedure: Antifungal activity assays were performed on commercially available tomato fruits. A total of 36 tomato fruits (12 fruits per treatment) were washed with 0.01% bleach and rinsed three times with sterile distilled water. Carborundum Powder (Fisher Chemical, USA) was gently rubbed on the fruit surface to create microinjuries. The fruits were inoculated with 20 μl B. cinerea conidia (1×10^5 conidia ml-1) via drop inoculation. Conidia of B. cinerea were prepared as described above. Fruits were incubated in a Ziploc weather shield box containing moist paper towels to maintain high humidity after drop inoculation. 20 μl of peptide solution (0.75 μM of NCR13_PFV1 or NCR13_PFV2) was applied to the drop inoculated conidial suspension at 12 hours post-inoculation (hpi) and incubated for 5 days.

[5] = tested on: S. sclerotiorum 555; assay: Semi-in planta antifungal assay on detached soybean leaves; assay type: in vivo, Sclerotinia sclerotiorum; conditions: 2 dpi
Procedure: Representative pictures (under white light and with CropReporter based on the value of potential photosynthetic efficiency Fv/Fm) taken 48 h post-infection showing the antifungal activity of NCR13_PFV1.
as §1

[6] = tested on: Botrytis cinerea; assay: Antifungal MIC, 96-well plate spectrophotometric / resazurin cell viability assay; assay type: cell-based; conditions: for SFM + 2 mM CaCl2 (antifungal activity/MIC): SFM supplemented with 2 mM CaCl2; for SM + 100 mM NaCl (antifungal activity/MIC): medium supplemented with 100 mM NaCl
Procedure: (§2) The fungal strain of Botrytis cinerea T-4 was cultured in 20% V8 growth medium. Alternaria alternata was grown on potato dextrose agar. Fungal spores were harvested by flooding the fungal growth plates with sterile water. The spore suspension was filtered through two layers of Miracloth, centrifuged at 13,600 rpm for 1 min, washed, and re-suspended in low-salt Synthetic Fungal Medium (SFM) (U.S. Pat. No. 6,916,970). The spore suspension was adjusted to equivalent spore density using a hemocytometer.
Antifungal activity of NCR13_PFV1 and NCR13_PFV2 was assessed at different concentrations using a 2-fold dilution series of each peptide. Antifungal activity of each peptide was determined spectrophotometrically using the 96-well plate assay (Sagaram et al., (2011) PLoS One. doi: 10.1371/journal.pone.0018550; Sagaram et al., (2013). PLoS One. 2013 Dec. 4; 8(12):e82485. doi: 10.1371/journal.pone.0082485). Forty-five microliters of each peptide at different concentrations was added to each well of the microtiter plate containing 45 μL of ˜10^5 spores/ml spore suspension. The quantitative fungal growth inhibition was determined by measuring the absorbance at 595 nm using a microplate reader (Tecan Infinite M200 ProTecan Systems Inc., San Jose, CA) after 48 h. The fungal cell viability was determined by the resazurin cell viability assay (Li et al., 2019, MPMI 32, 1649-1664; Velivelli et al., 2020, doi.org/10.1073/pnas.2003526117). After incubation of the pathogen/peptide mixture for 48 h, […] 0.1% resazurin solution was added to each well. After incubation of the mixture overnight, a change in the color of the resazurin dye from blue to pink or colorless indicated the presence of live fungal cells. The MIC for each peptide was the lowest concentration of each peptide at which no change in blue color occurred. Using this protocol, the MIC value of NCR13_PFV1 and NCR13_PFV2 was also determined in presence of 100 mM NaCl and 2 mM CaCl2).
The MIC of NCR13_PFV1 and NCR13_PFV2 against B. cinerea was determined (Table 3). MIC assays were carried out in 2×SFM. […] We therefore determined antifungal activity of NCR13_PFV1 and NCR13_PFV2 in SFM supplemented with 100 mM NaCl or 2 mM CaCl2) (Table 3).

[7] = tested on: Alternaria alternata; assay: as above; assay type: cell-based; conditions: Synthetic Fungal Medium
Procedure: as §2
Cercospora sojina and Alternaria alternata conidia were harvested from a fully grown culture plate by gently dislodging the conidia with an L-spreader in the presence of 5 ml sterile water. […]
Antifungal activity of NCR13_PFV1 and NCR13_PFV2 was assessed at different concentrations using a 2-fold dilution series of each peptide. Antifungal activity of each peptide was determined spectrophotometrically using the 96-well plate assay (Sagaram et al., (2011) PLoS One. doi: 10.1371/journal.pone.0018550; Sagaram et al., (2013). PLoS One. 2013 Dec. 4; 8(12):e82485. doi: 10.1371/journal.pone.0082485). […] The quantitative fungal growth inhibition was determined by measuring the absorbance at 595 nm using a microplate reader (Tecan Infinite M200 ProTecan Systems Inc., San Jose, CA) after 48 h. […]

[8] = tested on: Cercospora sojina; assay: Microscopic observation of antifungal activity (light microscope, 20x); assay type: cell-based
From the text: (§3) The presence of germinating conidia/mycelial fragments was observed under a light microscope at 20× magnification. […] (FIG. 3A).

[9] = tested on: Alternaria alternata; assay: as above; assay type: cell-based; conditions: A. alternata; peptide at 3 μM
From the text: as §3

[10] = tested on: Cercospora sojina; assay: Antifungal MIC, 96-well plate spectrophotometric / resazurin cell viability assay; assay type: cell-based; conditions: Synthetic Fungal Medium
Procedure: Cercospora sojina and Alternaria alternata conidia were harvested from a fully grown culture plate by gently dislodging the conidia with an L-spreader in the presence of 5 ml sterile water. To remove mycelial fragments, the spore suspension was filtered through three layers of miracloth and washed twice with sterile water at 13,000 rpm for 2 minutes. The spore concentration was adjusted to 1×10^5 spores/ml using a hemocytometer.
Antifungal activity of NCR13_PFV1 and NCR13_PFV2 was assessed at different concentrations using a 2-fold dilution series of each peptide. Antifungal activity of each peptide was determined spectrophotometrically using the 96-well plate assay (Sagaram et al., (2011) PLoS One. doi: 10.1371/journal.pone.0018550; Sagaram et al., (2013). PLoS One. 2013 Dec. 4; 8(12):e82485. doi: 10.1371/journal.pone.0082485). Forty-five microliters of each peptide at different concentrations was added to each well of the microtiter plate containing 45 μL of ˜10^5 spores/ml spore suspension. The quantitative fungal growth inhibition was determined by measuring the absorbance at 595 nm using a microplate reader (Tecan Infinite M200 ProTecan Systems Inc., San Jose, CA) after 48 h. The fungal cell viability was determined by the resazurin cell viability assay (Li et al., 2019, MPMI 32, 1649-1664; Velivelli et al., 2020, doi.org/10.1073/pnas.2003526117). […]

Substance	S. sclerotiorum 555 mycelial growth in vitro ([1]; 3, 6, 12 and 24 μM)	SFM MIC [1]	activity against gray mold disease relative to NCR13_PFV2 [2]	inhibition of gray mold disease symptoms [2]	protection against S. sclerotiorum 555 [3]	lesion or decay development ([3]; compared to water control)	control of B. cinerea growth in tomato fruits [4]	control of B. cinerea growth in tomato fruits ([4]; listed as NCR13 PFV1)	visible fungal growth on tomato fruits [4]	lesion size [5]	antifungal activity of NCR13_PFV1 relative to NCR13_PFV2 (from MIC) [6]	SFM + 2 mM CaCl2 (antifungal activity/MIC) [6]	SM + 100 mM NaCl (antifungal activity/MIC) [6]	SFM MIC [7]	concentration at which C. sojina growth was inhibited (microscopy) [8]	conidial germination / mycelial growth under the microscope [9]	SFM MIC [10]	SFM MIC ([6]; Synthetic Fungal Medium, 48 h, resazurin)	fold higher inhibitory concentration versus the other folding variant ([8]; C. sojina)
NCR13_PFV1: NCR13-Ala peptide (SEQ ID NO: 2) expressed in Pichia pastoris, HPLC Peak1 folding variant (ATKPCQSDKDCKKFACRKPKVPKCINGFCKCVR; disulfide 11-29, 16-31, 5-24)	progressively reduced in size with increasing concentrations	6 µM and 6.0 µM	two-fold higher activity	completely inhibitory	100%	no lesion or decay development	effective in controlling B. cinerea fungal growth	effective	no visible fungal growth	significantly decreased lesion sizes	fourfold or greater	Inactive	Inactive	0.75 µM	0.18 µM	complete inhibition of conidial germination	–	–	–
NCR13_PFV2: NCR13-Ala peptide (SEQ ID NO: 2) expressed in Pichia pastoris, HPLC Peak2 folding variant (ATKPCQSDKDCKKFACRKPKVPKCINGFCKCVR; not fully specified; cysteine pairing not given here)	–	24.0 µM	–	only partially inhibitory	–	–	–	–	visible fungal growth	–	–	Inactive	Inactive	3 µM and 3.0 µM	3 µM	significant mycelial growth	1.5 µM	1.5 µM	~17
